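Briefly, cells in 96-well plates were exposed to five compound concentrations for 48 h, and endpoints were estimated by linear interpolation. The concentration for 50% growth inhibition is given as GI50.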 The source made the active and inactive calls. Cut-off read from the data, not from the text of the source: active = GI50 up to about 1.1 µM and inactive = higher.
Tests used:
Test in all cases: growth of human tumour cells (NCI), 48 h
SK-MEL-28 = system: SK-MEL-28
SK-MEL-5 = system: SK-MEL-5
CAKI-1 = system: CAKI-1
DMS-273 = system: DMS-273
786-0 = system: 786-0
NCI-H23 = system: NCI-H23
OVCAR-8 = system: OVCAR-8
HOP-92 = system: HOP-92
MOLT-4 = system: MOLT-4
U-251 = system: U-251
SNB-75 = system: SNB-75
SF-295 = system: SF-295
RXF 393 = system: RXF 393
K562 = system: K562
M14 = system: M14
LXFL 529 = system: LXFL 529
HCT-15 = system: HCT-15
UACC-257 = system: UACC-257
TK-10 = system: TK-10

Structure (SMILES) | GI50 (SK-MEL-28) | GI50 (SK-MEL-5) | GI50 (CAKI-1) | GI50 (DMS-273) | GI50 (786-0) | GI50 (NCI-H23) | GI50 (OVCAR-8) | GI50 (HOP-92) | GI50 (MOLT-4) | GI50 (U-251) | GI50 (SNB-75) | GI50 (SF-295) | GI50 (RXF 393) | GI50 (K562) | GI50 (M14) | GI50 (LXFL 529) | GI50 (HCT-15) [µM] | GI50 (UACC-257) | GI50 (TK-10)
CC(=O)N(N=O)c1ccc(N(N=O)C(C)=O)cc1 | > 100 µM (inactive) | > 100 µM (inactive) | > 100 µM (inactive) | > 100 µM (inactive) | > 100 µM (inactive) | > 100 µM (inactive) | > 100 µM (inactive) | > 100 µM (inactive) | > 100 µM (inactive) | > 100 µM (inactive) | > 100 µM (inactive) | > 100 µM (inactive) | > 100 µM (inactive) | > 100 µM (inactive) | > 100 µM (inactive) | > 100 µM (inactive) | > 100 | – | –
COc1ccc2c(c1)C(CCN)C(=O)N2 (configuration not stated) | > 100 µM (inactive) | > 100 µM (inactive) | > 100 µM (inactive) | > 100 µM (inactive) | > 100 µM (inactive) | > 100 µM (inactive) | > 100 µM (inactive) | > 100 µM (inactive) | > 100 µM (inactive) | > 100 µM (inactive) | > 100 µM (inactive) | > 100 µM (inactive) | – | > 100 µM (inactive) | > 100 µM (inactive) | > 100 µM (inactive) | > 100 | > 100 µM (inactive) | > 100 µM (inactive)
COc1cc2cc3c4c(cc(OC)c(OC)c4c2cc1OC)CCN3C(=O)OCCN1CCNCC1 | 18.5 µM (inactive) | 14.3 µM (inactive) | 15 µM (inactive) | 13.5 µM (inactive) | 11.6 µM (inactive) | 17.4 µM (inactive) | 15.9 µM (inactive) | 12.9 µM (inactive) | 16.1 µM (inactive) | 15.3 µM (inactive) | 11.9 µM (inactive) | 15 µM (inactive) | 14.4 µM (inactive) | 12.6 µM (inactive) | 14.7 µM (inactive) | 15.1 µM (inactive) | 15.5 | 14.9 µM (inactive) | 15 µM (inactive)
O=C1CC(S(=O)(=O)O)C=C1Nc1cccc(Cl)c1 (configuration not stated) | > 100 µM (inactive) | > 100 µM (inactive) | > 100 µM (inactive) | > 100 µM (inactive) | > 100 µM (inactive) | > 100 µM (inactive) | > 100 µM (inactive) | > 100 µM (inactive) | > 100 µM (inactive) | > 100 µM (inactive) | > 100 µM (inactive) | > 100 µM (inactive) | > 100 µM (inactive) | > 100 µM (inactive) | > 100 µM (inactive) | > 100 µM (inactive) | – | > 100 µM (inactive) | > 100 µM (inactive)

— ChEMBL document CHEMBL1201862, “PubChem BioAssay data set” (2004)
